Experimental data reported in patent US20170336420A1, “METHODS AND KITS FOR TREATING CARDIOVASCULAR DISEASES” (RAPPAPORT FAMILY INSTITUTE FOR RESEARCH IN THE MEDICAL …, priority 2014, published 2017).
Read-outs that look alike come from different tables or passages of the source.

Tests used:
[1] = patients who had a recent acute coronary syndrome; cited from earlier work
AIM HIGH participants [2] = experiment: AIM-HIGH randomized double blind clinical trial, primary composite endpoint of CVD events, also segregated by Hp type; format: in vivo, human; settings: DM participants
Description: AIM-HIGH (clinicaltrials.gov NCT00120289) was a randomized double blind clinical trial which set out to test the HDL hypothesis—that raising HDL would reduce CVD events. This hypothesis was based on epidemiological data showing that individuals with higher HDL had lower CVD. AIM-HIGH set out to raise HDL via the drug niacin. […] All participants received simvastatin. The primary endpoint was the first event of the composite of death from coronary heart disease, nonfatal myocardial infarction, ischemic stroke, hospitalization for an acute coronary syndrome, or symptom driven coronary or cerebral revascularization.
Hp typing was performed by the inventors using polyacrylamide gel electrophoresis. Data on Hp typing was returned to the AIM HIGH coordinating center which provided the event rates in these participants segregated by Hp type and treatment (monotherapy with statins only or combination therapy with statins plus niacin).

HDL [3] = settings: Hp 2-2 DM individuals; three independent studies; cited from earlier work
[4] = Hp 2-2 genotype individuals with diabetes mellitus; cited from earlier work
[5] = a little more than a year of treatment; cited from earlier work
[6] = for HDL Y1 (mean) / LDL Y1 (mean) / TG Y1 (mean): year 1
Description: AIM-HIGH (clinicaltrials.gov NCT00120289) was a randomized double blind clinical trial which set out to test the HDL hypothesis—that raising HDL would reduce CVD events. This hypothesis was based on epidemiological data showing that individuals with higher HDL had lower CVD. AIM-HIGH set out to raise HDL via the drug niacin. The 3414 participants in AIM HIGH were randomly assigned to receive extended release niacin […] vs placebo. All participants received simvastatin. The primary endpoint was the first event of the composite of death from coronary heart disease, nonfatal myocardial infarction, ischemic stroke, hospitalization for an acute coronary syndrome, or symptom driven coronary or cerebral revascularization.
70 Hp 1-1 and 70 Hp 2-2 DM AIM HIGH participants, with half in the niacin and half in the placebo group, were randomly selected by the AIM HIGH coordinating center for analysis for HDL metrics at baseline and one year into the study.

[7] = all participants; increased from mean of 35 mg/dl; cited from earlier work
HDL [8] = tested on: HDL
Method: (§1) This AIM HIGH substudy was approved by the AIM HIGH steering committee and was designed to investigate whether the Hp phenotype influenced HDL functional metrics in DM participants in AIM HIGH. All 1140 DM participants in AIM HIGH were subjected to Hp phenotyping. Functional HDL metrics (RCT and antioxidant function) was evaluated at baseline and at one year of treatment in 70 Hp 1-1 and 70 Hp 2-2 DM individuals with half in the niacin and half in the placebo group. In 20 Hp 1-1 and 20 Hp 2-2 DM individuals the amount of Hb associated with the HDL at baseline was measured. Individuals performing all functional assays were blinded to treatment assignment of all samples used for this study.
(§2) The amount of total oxidation and HDL anti-oxidant function were assessed in apolipoprotein (apo)-B depleted serum using the fluorescent and oxidation-sensitive agent dihydrorhodamine 123 (DHR). Apo-B depleted serum was prepared using polyethylene glycol (PEG) as previously described in Asztalos BF, de la Llera-Moya M, Dallal G E, Horvath K V, Schaefer E J, Rothblat G H. Differential effects of HDL subpopulations on cellular ABCA1- and SR-BI-mediated cholesterol efflux. J Lipid Res. 2005; 46:2246-2253
(§3) Briefly-serum samples were treated with PEG solution to precipitate apoB-containing lipoproteins by adding 40 parts PEG solution (20% PEG in 200 mM glycine buffer, pH 7.4) to 100 parts serum. After a 20 min incubation, the precipitate was removed by high-speed centrifugation (10,000 rpm, 30 min, 4° C.) to obtain the PEG supernatant containing the HDL lipoprotein fraction.
(§4) Duplicates of 20 μl of apo-B-depleted serum were transferred to clear-bottom 96-well plates, and 180 μl of iron-free Hepes-buffered saline (HBS) containing 50 μM DHR was then added. Immediately after the addition of DHR, the kinetics of fluorescence increase was followed in a BMG Galaxy Fluostar microplate reader at 37° C. with a 485/538 nm excitation/emission filter pair with repeated readings every 2 minutes up to 40 minutes. Total oxidation was calculated as the rate of DHR oxidation (fluorescent units (FU)/min) for each duplicate after subtracting the rate of DHR oxidation observed using the same conditions but in the absence of serum.
HDL anti-oxidation function represents a fraction of the total oxidation prevented by HDL (in which case HDL is behaving as an antioxidant) or provoked by HDL (in which case HDL is behaving as a pro-oxidant) within each sample. To calculate HDL anti-oxidant function, HDL was depleted by immunoprecipitation from apo-B-depleted serum using anti-human apoA1 antibody and protein A/G Sepharose, before duplicates of corrected volumes of remnant apo-B- and Apo-A-depleted serum were transferred to 96-well plates and the rate of DHR oxidation measured in the identical manner and in parallel with the measurement of total oxidation as described above.

ApoB depleted serum = tested on: ApoB depleted serum
Method: as §1, §2, §3, §4

AIM HIGH participants [9] = settings: cited from earlier work
[10] = tested on: Murine macrophage J774 cells; settings: Hp 1-1 group, baseline vs 1 year on niacin
Method: Serum induced reverse cholesterol transport function and HDL antioxidant function were measured in 70 Hp 1-1 and 70 Hp 2-2 participants from the AIM HIGH study at baseline and at one year after randomization to placebo or niacin.
as §1, with “Individuals performing all functional assays were blinded to treatment assignment of all samples used for this study.” left out
Measurement of HDL efflux capacity was performed as previously described. […] Liquid scintillation counting was then determined in 500 μl of the medium collected from each well as well as in the cells after washing the cells twice with PBS and lysing them in 0.1 N NaOH. Cholesterol efflux capacity was determined as the percentage efflux of total counts per minute in the medium divided by the total counts per minute in the medium and in the cells and after subtraction of the nonspecific efflux obtained in cells incubated in the absence of serum.

[11] = Hp 1-1 niacin group, at one year vs baseline
[12] = Hp 2-2 niacin group, at one year vs baseline

In the case of `CCC(CC)CC1(C(=O)Nc2ccccc2SC(=O)C(C)C)CCCCC1` [Dalcetrapib®, S-[2-({[1-(2-ethylbutyl)cyclohexyl]carbonyl}amino)phenyl] 2-methylpropanethioate], the “HDL cholesterol levels (in words)” value [1] is given as “increase HDL cholesterol levels” and the “risk of recurrent cardiovascular events (in words)” value [1] is given as “did not reduce the risk of recurrent cardiovascular events”.
For `CCC(C)(C)C(=O)O[C@H]1C[C@@H](C)C=C2C=C[C@H](C)[C@H](CC[C@@H]3C[C@@H](O)CC(=O)O3)[C@H]21` [Simvastatin], the “% Primary Event, % of N in this category” value (AIM HIGH participants [2]; HP1-1) was “(24.0%)”, the “Event Rate” value (AIM HIGH participants [2]; HP1-1) was 0.0803 and the “N Primary Event” value (AIM HIGH participants [2]; HP1-1) was 23. For the same molecule, the “% Primary Event, % of N in this category” value (AIM HIGH participants [2]; HP2-1) was “(17.9%)”, the “Event Rate” value (AIM HIGH participants [2]; HP2-1) was 0.0582 and the “N Primary Event” value (AIM HIGH participants [2]; HP2-1) was 46. The “% Primary Event, % of N in this category” value (AIM HIGH participants [2]; HP2-2) was “(16.3%)”, the “Event Rate” value (AIM HIGH participants [2]; HP2-2) was 0.0532 and the “N Primary Event” value (AIM HIGH participants [2]; HP2-2) was 33.
In the case of vitamin E, the “RCT function (in words)” value (HDL [3]) is listed as “restore and significantly improve RCT function” and the “risk for cardiovascular diseases (in words)” value [4] is listed as “reduces the risk for cardiovascular diseases”.
For `CC(C)c1c(C(=O)Nc2ccccc2)c(-c2ccccc2)c(-c2ccc(F)cc2)n1CC[C@@H](O)C[C@@H](O)CC(=O)O` [Atorvastatin®, Atorvastatin], the deaths [5] is listed as 51.
In the case of `O=C(O)c1cccnc1` [niacin, pyridine-3-carboxylic acid], the “HDL Y1 (mean)” value ([6]; Hp 11 niacin group, HDL base 33.91) is reported as 40.94, the “LDL Y1 (mean)” value ([6]; Hp 11 niacin group, LDL base 81.18) is reported as 67.71 and the “TG Y1 (mean)” value ([6]; Hp 11 niacin group, TG base 193.12) is reported as 174.97. The “HDL Y1 (mean)” value ([6]; Hp 22 niacin group, HDL base 33.74) was 43.29, the “LDL Y1 (mean)” value ([6]; Hp 22 niacin group, LDL base 65.91) was 64.15 and the “TG Y1 (mean)” value ([6]; Hp 22 niacin group, TG base 211.88) was 164.50. The “HDL mass (in words)” value ([6]; both Hp 1-1 and Hp 2-2 DM individuals) was “significant increase in HDL mass”, the “HDL, mean on treatment” value [7] was 42 mg/dL and the “change in HDL antioxidant function (in words)” value (HDL [8]; Hp 1-1 individuals) was “improved”. The “change in HDL antioxidant function (in words)” value (HDL [8]; Hp 1-1 individuals, listed as Niacin) was “increase in HDL antioxidant function”, the “HDL antioxidant function increased by” value (HDL [8]; [11]) was 10.8±2.3 units and the “change in HDL antioxidant function (in words)” value (HDL [8]; Hp 2-2 individuals) was “worsened”. The “change in HDL antioxidant function (in words)” value (HDL [8]; Hp 2-2 individuals, listed as Niacin) was “significant decline in the antioxidant function”, the “HDL antioxidant function decreased by” value (HDL [8]; [12]) was 8.3±2.9 units and the “change in total oxidation (in words)” value (ApoB depleted serum; Hp 1-1 individuals) was “significant decrease”. The “total oxidation decreased by” value (ApoB depleted serum; [11]) was 19.1±3.4 oxidation units, the “change in total oxidation (in words)” value (ApoB depleted serum; Hp 2-2 individuals) was “significant increase in total oxidation” and the “total oxidation increased by” value (ApoB depleted serum; [12]) was 13.4±5.0 oxidation units. For the same molecule, the “primary endpoint occurred in patients” value (AIM HIGH participants [9]; all 3414 participants, extended release niacin 1500-2000 g/day, all received simvastatin, mean follow up 3 years) was 282 patients, the “primary endpoint, % of group” value (AIM HIGH participants [9]; all participants, niacin group, all received simvastatin, mean follow up 3 years) was 16.4% and the “HR for primary endpoint” value (AIM HIGH participants [9]; niacin group vs placebo group, all participants) was 1.02. The “increase in median efflux” value [10] was 14%.
